Reference: article PMC7084598, “Design, Synthesis, and Biological Evaluation of Two Series of Novel A-Ring Fused Steroidal Pyrazines as Potential Anticancer Agents” (International Journal of Molecular Sciences, 2020)

Columns and labels:
[1] = tested on: P338; parameters: method as in PMID 14695204, PMID 26042639; settings: cited from earlier work
[2] = tested on: MCF-7; parameters: method as in PMID 14695204, PMID 26042639; settings: cited from earlier work
[3] = tested on: NCI-H460; parameters: method as in PMID 14695204, PMID 26042639; settings: cited from earlier work
[4] = tested on: DU-145; parameters: method as in PMID 14695204, PMID 26042639; settings: cited from earlier work
[5] = tested on: PC-3 cells; assay: Cell cycle assay, PI single staining, flow cytometry; format: cell-based, human; settings: for Percentage of Cell Cycles (%) G1 / Percentage of Cell Cycles (%) S / Percentage of Cell Cycles (%) G2/M: 48 h; for Percentage of Cell Cycles (%) G2/M: control 15.69%
Method: To further clarify the effects of A-ring fused steroidal pyrazines on cell growth, the cell cycle distribution of PC-3 cells was investigated through treatment with compound 12n at concentration gradients for 48 h (Figure 5 and Table 5).
The cell cycle was examined by PI single staining (Beyotime, Shanghai, China), as previously described. […] The samples were analyzed using flow cytometry for DNA content (CytoFLEX, California, United States).

[6] = tested on: HepG2 (liver hepatocellular carcinoma); assay: CCK-8 antiproliferative assay, HepG2; format: cell-based; settings: Homo sapiens, 48 h, CCK8, mean of three independent experiments, NA = no activity, read-out: Inhibitory Ratio (Mean% ± SD%) HepG2
Method: (§1) All the thirty-six target derivatives (5a–5f, 10a–10o, and 12a–12o) were screened for antiproliferative activities against three human cancer cell lines (MCF-7, PC-3, and HepG2) and cytotoxicity on a normal human cell (THLE-2) at the concentration of 20 μM by using the CCK8 assay.
(§2) Thirty-six novel steroidal A-ring fused pyrazine hybrids were evaluated by Cell Counting Kit-8 (CCK-8) assays, to evaluate their in vitro antiproliferative activities on three human cancer cell lines and one normal cell line: MCF-7 (breast carcinoma), PC-3 (prostate carcinoma), HepG2 (liver hepatocellular carcinoma), and THLE-2 ([…]), with 5-fluorouracil as the positive control.
(§3) Cells (3 × 10^3 cells per well) seeded into 96-well plates (Costar, Shanghai, China) were incubated with Ham’s F-12K containing various concentrations of steroidal pyrazines (5a–5f, 10a–10o, and 12a–12o) for 48 h at 37 °C and 5% COThen, 10 μL of CCK-8 reagent (Beyotime, Shanghai, China) dissolved in PBS (Phosphate buffered saline) was added per well, and continuously incubated at 37 °C for 1 h. Finally, the absorbance of samples taken from each well was measured on a microplate reader at 450 nm. The antiproliferative activities were expressed as inhibitory activity and IC50 values calculated using GraphPad Software 5.0 (GraphPad Software, San Diego, CA, USA), which were the mean values of three independent tests and are shown in Table 1 and Table 2, respectively. The formula used for cell inhibitory rates was (1 - sample absorption/vehicle absorption) × 100%.

[7] = tested on: PC-3 cells; assay: Giemsa staining for morphological features of apoptosis; format: cell-based, human; settings: 1.0 and 4.0 μM, 48 h
Method: After being treated with 12n at different concentrations (1.0 and 4.0 μM), the cells were stained with Giemsa stain. […] Other morphological changes, such as the loss of volume and deformation of a regular appearance, were also found.
Giemsa stain was used to assess the morphological changes of PC-3 cells, according to the standard Giemsa procedure established by the supplier (Solarbio, Beijng, China). Briefly, PC-3 cells were plated at 3 × 10^3 cells/well into a 96-well plates. PC-3 cells after treatment with 12n for 48 h were fixed with methanol (75%) for 10 min at room temperature. Then, the cells were stained with Giemsa (diluted with phosphate buffer), observed, and photographed under the microscope at 200 × (Olympus Corporation, Tokyo, Japan ).

[8] = tested on: MCF-7 (breast carcinoma); assay: CCK-8 antiproliferative assay, MCF-7; format: cell-based; settings: Homo sapiens, MCF7, 48 h, CCK8, mean of three independent experiments, NA = no activity, read-out: Inhibitory Ratio (Mean% ± SD%) MCF-7
Method: as §1, §2, §3

[9] = tested on: THLE-2 (normal human cells); assay: CCK-8 cytotoxicity on normal cells, THLE-2; format: cell-based
Method: as §1, §2, §3

[10] = tested on: PC-3 (prostate carcinoma); assay: CCK-8 antiproliferative assay, PC-3; format: cell-based, human
Method: as §1, §2, §3

[11] = tested on: PC-3 cells; assay: Cell apoptosis assay, Annexin V-FITC/PI dual staining, flow cytometry; format: cell-based, human; settings: for Percentage of Cell Apoptosis (%) Normal Living Cell: 48 h (Q1-LL); for Percentage of Cell Apoptosis (%) Early Apoptosis: 48 h (Q1-LR); for Percentage of Cell Apoptosis (%) Necrosis: 48 h (Q1-UL); for Percentage of Cell Apoptosis (%) Late Apoptosis: 48 h (Q1-UR); for apoptosis ratio (early and late apoptotic ratios): 48 h, blank control 5.77%
Method: To clarify the effect of steroidal pyrazines on the induction of apoptosis in PC-3 cells, a flow cytometry assay with Annexin-V-FITC/PI double staining was implemented.
The cell apoptosis was evaluated with Annexin V-FITC/PI dual staining (Beyotime, Shanghai, China), as previously described. PC-3 cells (1 × 10^6 cells per well) seeded into 6-well plates (Costar, Shanghai, China) were incubated with Ham’s F-12K containing various concentrations (0.2, 1.0, and 5.0 μM) of compound 12n for 48 h. The biological samples were analyzed using flow cytometry (CytoFLEX, CA, USA).

Ritterazine B
ED50 (nM) for P338 [1]: 0.17 nM

C[C@@H]1[C@]2(O[C@H]3C=C4[C@@H]5CC[C@H]6Cc7nc8c(nc7C[C@]6(C)[C@H]5C[C@@H](O)[C@]4(C)[C@]31O)C[C@@H]1CC[C@H]3C4=CC[C@@H]5[C@H](C)[C@@]6(OC[C@]45C(=O)C[C@@H]3[C@@]1(C)C8)OC(C)(C)C[C@H]6O)O[C@](C)(CO)C[C@H]2O [Cephalostatin 1]
GI50 [2]: 0.099 nM
GI50 [3]: 0.044 nM
GI50 [4]: 0.11 nM

CC(O)C1CCC2C3CC=C4C(C)(C)c5nc(C(=O)NCCc6ccccc6)cnc5CC4(C)C3CCC12C (stereo not shown) [Compound 12n]
Percentage of Cell Cycles (%) G1 ([5]; PC-3, 0.2 μM): 46.65%
Percentage of Cell Cycles (%) S ([5]; PC-3, 0.2 μM): 37.26%
Percentage of Cell Cycles (%) G2/M ([5]; PC-3, 0.2 μM): 16.09%
Percentage of Cell Cycles (%) G1 ([5]; PC-3, 1.0 μM): 23.03%
Percentage of Cell Cycles (%) S ([5]; PC-3, 1.0 μM): 30.78%
Percentage of Cell Cycles (%) G2/M ([5]; PC-3, 1.0 μM): 46.19%
percentage of cells in the G2/M phase ([5]; PC-3, 5.0 μM): 44.27%
Percentage of Cell Cycles (%) G1 ([5]; PC-3, 5.0 μM): 55.73%
Percentage of Cell Cycles (%) S ([5]; PC-3, 5.0 μM): 0.00%
Percentage of Cell Cycles (%) G2/M ([5]; PC-3, 5.0 μM): 44.27%
inhibition at 20 µM [6]: 55.4 ± 1%
Morphological changes of PC-3 cells (Giemsa stain) [7]: could cause the morphological change of PC-3 cells in a dose-dependent manner
inhibition at 20 µM [8]: 40.8 ± 1.72%
inhibition at 20 µM ([9]; 20 μM, 48 h, CCK8, NA = no activity, read-out: Inhibitory Ratio (Mean% ± SD%) THLE-2): 19.3 ± 1.81%
IC50 ([9]; CCK-8, 48 h): 26700 nM
inhibition at 20 µM ([10]; Homo sapiens, 48 h, 20 μM, 48 h, CCK8, mean of three independent experiments, NA = no activity, read-out: Inhibitory Ratio (Mean% ± SD%) PC-3): > 60%
IC50 ([10]; Homo sapiens, CCK-8, 48 h, triplicate): 930 ± 20 nM
SI: Selectivity index = (IC50 of THLE-2)/(IC50 of PC-3) ([10]; THLE-2 vs PC-3): 28.71
Percentage of Cell Apoptosis (%) Normal Living Cell ([11]; PC-3, 0.2 μM): 89.20%
Percentage of Cell Apoptosis (%) Early Apoptosis ([11]; PC-3, 0.2 μM): 0.76%
Percentage of Cell Apoptosis (%) Necrosis ([11]; PC-3, 0.2 μM): 2.15%
Percentage of Cell Apoptosis (%) Late Apoptosis ([11]; PC-3, 0.2 μM): 7.90%
apoptosis ratio (early and late apoptotic ratios) ([11]; PC-3, 0.2 μM): 8.66%
Percentage of Cell Apoptosis (%) Normal Living Cell ([11]; PC-3, 1.0 μM): 73.17%
Percentage of Cell Apoptosis (%) Early Apoptosis ([11]; PC-3, 1.0 μM): 4.55%
Percentage of Cell Apoptosis (%) Necrosis ([11]; PC-3, 1.0 μM): 3.21%
Percentage of Cell Apoptosis (%) Late Apoptosis ([11]; PC-3, 1.0 μM): 19.07%
apoptosis ratio (early and late apoptotic ratios) ([11]; PC-3, 1.0 μM): 23.62%
Percentage of Cell Apoptosis (%) Normal Living Cell ([11]; PC-3, 5.0 μM): 54.13%
Percentage of Cell Apoptosis (%) Early Apoptosis ([11]; PC-3, 5.0 μM): 3.64%
Percentage of Cell Apoptosis (%) Necrosis ([11]; PC-3, 5.0 μM): 6.30%
Percentage of Cell Apoptosis (%) Late Apoptosis ([11]; PC-3, 5.0 μM): 35.93%
apoptosis ratio (early and late apoptotic ratios) ([11]; PC-3, 5.0 μM): 39.57%
